{
  "source": "patent US20220184222A1",
  "about": "“BICYCLE TOXIN CONJUGATES AND USES THEREOF” (BicycleTx Limited, priority 2019, published 2022)",
  "system": "PC-3M-luc-C6 human prostate carcinoma",
  "test": "Intracardially implanted PC-3M-Luc-C6 metastatic model, BLI and survival (Example 6)",
  "assay_type": "in vivo, Mouse",
  "conditions": "for Day 26 T/C: BLI total bone signal; for tumor growth delay: evaluation size 9.0E+07 p/s",
  "description": "The purpose of this study was to evaluate the efficacy and overall impact of Bicycle toxin conjugate BT5528 against established intracardially implanted PC-3M-luc-C6 human prostate carcinoma in male nude mice, with treatment regimens starting at different disease stages (Day 14 and Day 21). Response was monitored using bioluminescence imaging (BLI) on Days 14, 21, 28, 35, and 42 coupled with traditional survival endpoints.\nBT5528: • Formulation pH: 5.4 • High Dose Formulation: 0.15 mg/mL • Vehicle: 50 mM Acetate, 10% Sucrose • Storage: 4° C. • Dose volume: 0.01 mL/g\nAll procedures carried out in this experiment were conducted in compliance with the applicable laws, regulations and guidelines of the National Institutes of Health (NIH). • Species: Mouse • Strain: Envigo nude mice (Hsd:Athymic Nude-Foxn1^nu) • Age at implant: 5-6 weeks • Sex: male • Min weight (D14): 24.9 g • Mean weight (D14): 28.4 g (range of group means, 27.7-28.8 g)\nAnimals were anesthetized with an IP injection of a ketamine (100 mg/kg)/xylazine (6 mg/kg) cocktail. When the animals were non-responsive (determined by a toe pinch test), 100 μl of cell suspension (3.0 E+06 cells) were drawn into a 1 ml syringe and a 27×½″ gauge needle was then attached. A small air bubble is created in the plunger side of the syringe before injection. The needle was then inserted slowly through the center of the second intercostal space, approximately 3 mm to the left of the sternum and aimed centrally until a continuous pulsation of bright red oxygenated blood into the needle hub was observed. 100 μl of cell suspension was then slowly injected over 5 seconds. A fresh needle and syringe were used for each animal.\nAnimals were injected with firefly D-luciferin (150 mg/kg) by IP administration according to body weight (0.2 ml/20 g). The success of the intracardiac injections was verified by a one minute bioluminescence scan using large binning (high sensitivity) of the CCD chip immediately after the injection. Mice with signals from the entire body, from snout to base of the tail, were deemed to have been successfully injected, while mice with signals localized to the chest area only, or not fully extending into the snout, were triaged from the study immediately.\nAll mice were sorted into study groups based on body weight and BLI-derived estimation of tumor burden.\nBLI was performed using an IVIS S5 Lumina system (PerkinElmer, Waltham, Mass.). Animals were imaged five at a time under 1-2% isoflurane gas anesthesia. Each mouse was injected IP with 150 mg/kg (15 mg/ml) D-luciferin and imaged in the prone then supine positions 10 minutes after the injection. Large binning of the CCD chip was used, and the exposure time was adjusted (10 seconds to 2 minutes) to obtain at least several hundred counts per image and to avoid saturation of the CCD chip. BLI images were collected on Days 0, 7, 14, 21, 28, 35, 42, 49, 56 and 63 post-implant.\nImages were analyzed using Living Image 4.7.1 (PerkinElmer, MA) software. Each unique tissue signal was circled manually and labeled based on anatomical site as mandible or hind limb for both prone and supine images. For limbs, the signal was also designated as being from the right or left side of the mouse.\nSignal flux (photons/sec) were calculated for each unique metastatic signal and exported for all ROIs to facilitate analyses between groups.\nStudy was terminated on Day 78. All BLI endpoint calculations were derived from total bone values. The BLI background signal for this study was measured at 1.20 E+05 p/s. An animal was credited with a partial regression if the BLI signal fell below half the staging BLI signal level. Similarly, a complete regression (CR) was credited if the BLI signal fell below the background level, and a tumor-free survivor was if the BLI signal was below background on last day of imaging (Day 63), with no evidence of disease at necropsy. […]",
  "key": {"[1]": {"conditions": "1.5 mg/kg IV Q7D × 4 starting Day 14"}, "[2]": {"conditions": "1.5 mg/kg IV Q7D × 4 starting Day 21"}},
  "note": "Starred links: 1 amine or outer side, 2 acyl side, 3 side chain; linkers in the order of their positions; H or OH if unused. Non-standard residues stand in square brackets, D forms with d. Residues, ends and D or L forms follow the SMILES beside them. *: point of attachment. Dolaproine = CO[C@@H]([C@@H]1CCCN1)[C@@H](C)C(=O)O; Dil = CC[C@H](C)[C@H](NC)[C@@H](CC(=O)O)OC; PABC = O=C(OCc1ccc(N[*:1])cc1)[*:2]; X1 = O=C(CCCC(=O)*)ON1C(=O)CCC1=O; X2 = C[C@@H](N*)[C@@H](O)c1ccccc1; Cit = NC(=O)NCCC[C@H](N)C(=O)O; NMeV = CN[C@H](C(=O)O)C(C)C",
  "data": [
    {"smiles": "CC[C@H](C)[C@@H]([C@@H](CC(=O)N1CCC[C@H]1[C@H](OC)[C@@H](C)C(=O)N[C@H](C)[C@@H](O)c1ccccc1)OC)N(C)C(=O)[C@@H](NC(=O)[C@H](C(C)C)N(C)C(=O)OCc1ccc(NC(=O)[C@H](CCCNC(N)=O)NC(=O)[C@@H](NC(=O)CCCC(=O)ON2C(=O)CCC2=O)C(C)C)cc1)C(C)C", "note": "[BT5528] (X1-V[Cit][PABC][NMeV]V[Dil][Dolaproine]-X2)", "values": [
      {"measurement": "incidence of partial regressions", "setting": "[1]", "value": 60, "unit": "%"},
      {"measurement": "increased lifespan (ILS)", "setting": "[1]", "value": 177.3, "unit": "%"},
      {"measurement": "Day 26 T/C", "setting": "[1]", "value": 1, "unit": "%"},
      {"measurement": "tumor growth delay", "setting": "[1]", "value": "> 35.1", "unit": "days"},
      {"measurement": "increased lifespan (ILS)", "setting": "[2]", "value": 145.5, "unit": "%"},
      {"measurement": "less incidence of partial regressions than with Day 14 start", "setting": "[2]", "value": 40, "unit": "%"},
      {"measurement": "Day 26 T/C", "setting": "[2]", "value": 3.4, "unit": "%"},
      {"measurement": "tumor growth delay", "setting": "[2]", "value": "> 35.1", "unit": "days"},
      {"measurement": "bone tumor cell burden and survival", "setting": "4 weekly treatment cycles", "value": "reduced the bone tumor cell burden significantly and extended the survival of the mice"},
      {"measurement": "mice at the end of the study (D78) without observable (macroscopic) disease", "setting": "mouse, in vivo", "value": 1, "unit": "mouse"}
    ]}
  ]
}
